How the values were obtained:
[1] = Inhibition of Streptococcus mutans OMZ65 sortase A lacking N-terminal membrane anchor domain (1 to 40 amino acids) expressed in Escherichia coli TOP10 using Dabcyl-QALPETGEE-Edans substrate incubated for 1 hr by fluorescence spectrophotometry
Streptococcus mutans [2] = assay: Toxicity against Streptococcus mutans assessed as inhibition of microbial growth; type: organism-based; details: in vitro
Streptococcus mutans [3] = assay: Inhibition of sortase A in Streptococcus mutans NG8 assessed as reduction in saliva-induced bacterial aggregation at 58.6 to 234.4 uM by spectrophotometry

Question: For COc1cc(-c2oc3cc(O)cc(O)c3c(=O)c2O[C@@H]2O[C@H](CO[C@@H]3O[C@@H](C)[C@H](O)[C@@H](O)[C@H]3O)[C@@H](O)[C@H](O)[C@H]2O)ccc1O [NARCISSIN], which IC50 [1] is on record?
Answer: 62.1 µM

Question: What about the MIC (Streptococcus mutans [2]) of the same compound?
Answer: > 320.2 µM

Question: Which results are given for Cc1occc(=O)c1O[C@@H]1O[C@H](COC(=O)CC(C)(O)CC(=O)O)[C@@H](OC(=O)/C=C\c2ccc(O)cc2)[C@H](O)[C@H]1O (some centres not stated)?
Answer: IC50 [1]: 58.6 µM; MIC (Streptococcus mutans [2]): > 345.9 µM; inhibition (Streptococcus mutans [3]): Dose-dependent effect

Question: Which results are given for Cc1occc(=O)c1O[C@@H]1O[C@H](COC(=O)CC(C)(O)CC(=O)O)[C@@H](OC(=O)/C=C/c2ccc(O)cc2)[C@H](O)[C@H]1O (some centres not stated)?
Answer: IC50 [1]: 94.3 µM; MIC (Streptococcus mutans [2]): > 345.9 µM

Question: For COc1cc(/C=C/C(=O)CC(=O)/C=C/c2ccc(O)c(OC)c2)ccc1O [CURCUMIN], which IC50 [1] is on record?
Answer: 91.5 µM

Question: And the MIC (Streptococcus mutans [2])?
Answer: > 542.9 µM

Question: Which IC50 [1] does the source give for C[C@@H]1O[C@@H](OC[C@H]2O[C@@H](Oc3c(-c4ccc(O)cc4)oc4cc(O)cc(O)c4c3=O)[C@H](O)[C@@H](O)[C@@H]2O)[C@H](O)[C@H](O)[C@H]1O [NICOTIFLOROSIDE] here?
Answer: 60.7 µM

Question: And the MIC (Streptococcus mutans [2])?
Answer: > 336.4 µM

Question: With Para-Hydroxymercuribenzoic acid as the compound, how does the IC50 [1] read?
Answer: 112 µM
